According to patent US8518412B2, “Partial peptide of lacritin” (Senju Pharmaceutical Co, Ltd., priority 2009, dated 2013):
Non-standard residues stand in square brackets, D forms with d. No end group written: not given here. pGlu = O=C1CC[C@@H](C(=O)O)N1

System: human corneal epithelial cells (HCE-T)
Assay: Adhesion of human corneal epithelial cell to extracellular matrix (collagen type IV coated plate)
Type: cell-based
Details: polypeptide 100 μg/mL, 37° C. 25 min
Method: An extracellular matrix solution (10 μg/mL, collagen type IV: Becton, Dickinson and Company, catalog No. 354245) was added to a 96 well plate (Iwaki Glass Company, Limited, catalog No. 3860-096). The solution was incubated at 37° C. for 1 hr to coat the plate with the extracellular matrix. After the redundant extracellular matrix solution was removed, 0.1% BSA solution (Sigma-Aldrich Co., catalog No. A3803) was added to block the region not coated with the extracellular matrix. Successively, the BSA solution was removed and the plate was washed twice with PBS, and polypeptides 1-4 (concentration 100 μg/mL) synthesized in Example 1 (Pyr Lac50-83) and Comparative Examples 1-3 (Lac50-83, Pyr Lac50-94, Lac50-94), and negative control polypeptide (Lac24-56, Lac50-65) were added by 50 μl, per well. […]
Thereafter, the cells were fixed with 10% neutral buffered formaldehyde liquid (NACALAI TESQUE, INC., catalog No. 37152-51), and stained with 1% crystal violet staining solution (Sigma-Aldrich Co., catalog No. C3886). The image of the stained cells was uploaded using an inverted system microscope (Olympus Corporation, IX71), and the area of the adhered cells was measured using Image-Pro Plus Ver. […]

Row | Substance | cell adhesion promoting effect (cell adhesion rate against that without addition of polypeptide as 100%)
1 | Pyr Gly Thr Ala Lys Val Thr Ser Ser Arg Gln Glu Leu Asn Pro Leu Lys Ser Ile Val Glu Lys Ser Ile Leu Leu Thr Glu Gln Ala Leu Ala Lys Ala ([pGlu]GTAKVTSSRQELNPLKSIVEKSILLTEQALAKA; listed as Homo sapiens) [polypeptide 1, pyro-modified partial peptide of lacritin] | confirmed to have an activity to promote cell adhesion
2 | Pyr Gly Thr Ala Lys Val Thr Ser Ser Arg Gln Glu Leu Asn Pro Leu Lys Ser Ile Val Glu Lys Ser Ile Leu Leu Thr Glu Gln Ala Leu Ala Lys Ala Gly Lys Gly Met His Gly Gly Val Pro Gly Gly ([pGlu]GTAKVTSSRQELNPLKSIVEKSILLTEQALAKAGKGMHGGVPGG; listed as Homo sapiens) [polypeptide 3] | lowered activity as compared to that of polypeptide before pyro-modification
